What was measured:
[1] = system: TRAMP (Transgenic Adenocarcinoma of the Mouse Prostate) mice; conditions: cited from earlier work
LN229 cells [2] = test: Extracellular lactate; format: cell-based, human; conditions: tumor cells
Description: Glucose concentrations in cell culture media were determined using a Glucose kit (Sigma-Aldrich). Briefly, 2×10^6 cells were seeded in 10 cm2 tissue culture dishes for 48 h, mixed with DMEM in the presence of Gamitrinib or 17-AAG (0-20 μM) for additional 4 h, and 200 μl aliquots of culture medium were incubated with 1 ml assay mixture, containing 1.5 mM NAD, 1 mM ATP, 1.0 U/ml Hexokinase, and 1.0 U/ml G6PDH. The glucose concentration under the various conditions was determined by measuring the amount of reduced NAD to NADH by G6PDH, and quantified spectrophotometrically at 340 nm wavelength. Extracellular lactate was measured by a colorometric assay kit (Abcam). Culture media from LN229 cells was replaced with DMEM containing vehicle (DMSO) or Gamitrinib (5 μM) for 5 h. Changes in lactate concentrations were measured by analysis of lactate-dependent conversion of NADP to NADPH in the presence of excess lactate dehydrogenase (LDH), and quantified by absorbance at 450 nm. All assays were performed at 25° C. under conditions of linear lactate-limited NADPH formation.

tumor cells [3] = test: Mitochondrial permeability transition; format: cell-based, human; conditions: non-cytotoxic concentrations
Description: (a) FIG. 18a is a bar graph showing percent viability of aliquots of the human tumor cell lines PC3, LNCaP, LN229, A549, or MCF-7 incubated with the indicated increasing concentrations of Gamitrinib for 5 hr and analyzed for changes in cell viability by direct cell counting. Mean±SD (n=2). (b) FIG. 18b are two parameter histogram dot plots of human glioblastoma LN229 cells left untreated (None) or incubated with 5 μM 17-AAG or Gamitrinib (Gam) for 5 hr and analyzed for changes in mitochondrial membrane potential by JC-1 staining and multiparametric flow cytometry. The mitochondrial uncoupler carbonyl cyanide 3-chlorophenylhydrazone (CCCP) was used as a control. The percentage of cells in each quadrant is indicated. FL1, green fluorescence; FL2, red fluorescence.

[4] = system: AMP-activated kinase (AMPK); test: AMPK phosphorylation in tumor cells, Western blotting; format: cell-based, human
tumor cells [5] = test: ER UPR markers (Western blotting, Xbp1 splicing, RT-qPCR); format: cell-based, human
BRAF WT melanoma cells = test: Melanoma cell viability by MTT, BRAF WT; format: cell-based, human
Description: Various cell types were seeded in triplicate onto 96-well plates at 4×10^3 cells/well, treated with vehicle, Gamitrinib or 17-AAG (0-20 μM) for 12 h, and analyzed for changes in metabolic activity by an MTT assay. For determination of apoptosis, LN229 cells ([…]) were labeled for annexin V and propidium iodide (PI) (BD Biosciences), and analyzed by multiparametric flow cytometry (BD).

CypD = test: Mitochondrial protein folding (detergent solubility); format: cell-based, human; conditions: increasing CHAPS concentrations
Description: Mitochondrial protein folding assays were performed as described (Moisoi et al., 2009). Briefly, mitochondrial fractions were isolated from vehicle- or Gamitrinib-treated LN229 cells (5 μM for 12 h) and suspended in equal volume of mitochondrial fractionation buffer containing increasing concentrations of CHAPS (0, 0.05, 0.1, 0.2, 0.5, 1 or 2%). Samples were incubated for 20 min on ice and detergent-insoluble protein aggregates were isolated by centrifugation (20,000 g) for 20 min. Pellets were processed for further analysis.

[6] = system: mutant BRAF melanoma cells; test: 3D organotypic spheroids, mutant BRAF; format: cell-based, human; conditions: collagen-embedded, 72 h
Description: For analysis of tumor cell survival in 3D organotypic cultures, melanoma spheroids were prepared as previously described. Briefly, 50 μl aliquots of the various melanoma cell types (5×10^4 cells/ml) were seeded onto 96-well plates coated with 1.5% agar (Difco, Sparks, Md.) in PBS. Spheroids were allowed to form for 72 h and then embedded in 100 μl of bovine collagen type I (Organogenesis, Canton, Mass.). Spheroids were overlaid with 100 μl of Tu2% growth medium and treated with inhibitors for 72 hours. Quantification of live vs. dead cells under the various conditions tested was performed by staining the melanoma spheroids after 72 h of treatment with calcein-AM (live) and Topro-3 (dead) (Invitrogen) for 1 h (data not shown).

LN229 cells [7] = test: Oxygen consumption, fluorimetric assay; format: cell-based, human; conditions: tumor cells
Description: Treated tumor cells were analyzed using a fluorescence oxygen sensitive probe-based oxygen measuring kit (Luxcel Bioscience). For these experiments, LN229 cells were plated at increasing cell density (10-60×10^4/ml) on black body, clear bottom 96-well plates. The culture medium was replaced with 150 μl of phenol free DMEM containing 10% fetal bovine serum in the presence of 17-AAG or Gamitrinib (10 μM). Cells were further incubated with an oxygen-sensing probe (10 pmol/well), and 100 μl of heavy mineral oil was added to each well to seal the samples from ambient oxygen. After a 2 h incubation at 37° C., oxygen consumption was determined by quantifying the probe fluorescence signal in each well using a plate reader (Beckman Coulter) with excitation and emission wavelengths at 370 nm and 625 nm, respectively.

[8] = system: FF2508 or MRC5 primary human fibroblasts; test: AMPK activation in normal fibroblasts; format: cell-based
Description: For Western blotting, protein lysates were prepared from the different cell types in RIPA Buffer (150 mM NaCl, 1.0% Triton X-100, 0.5% sodium deoxycholate, 0.1% SDS, 50 mM Tris, pH 8.0) containing EDTA-free Protease Inhibitor Cocktail (Roche) and Phosphatase Inhibitor Cocktail 2 and 3 (Sigma Aldrich). Equal amounts of protein lysates were separated by SDS gel electrophoresis, transferred to PVDF membranes and incubated with primary antibodies of various specificities. Protein bands were detected by chemiluminescence.

CO[C@H]1/C=C\C=C(/C)C(=O)NC2=CC(=O)C(NCCCCCC[P+](c3ccccc3)(c3ccccc3)c3ccccc3)=C(C[C@@H](C)C[C@H](OC)[C@H](O)[C@@H](C)/C=C(\C)[C@@H]1OC(N)=O)C2=O [Gamitrinib]
residual prostatic adenocarcinoma at end of experiment ([1]; 5 mg/kg i.p., 3 d on/2 d off): only one animal displayed a small residual area of prostatic adenocarcinoma | Prostatic Intraepithelial Neoplasia (PIN) ([1]; systemic treatment): did not affect Prostatic Intraepithelial Neoplasia (PIN) | primary and metastatic prostate cancer growth ([1]; systemic treatment): inhibited primary and metastatic prostate cancer growth | extracellular lactate levels (LN229 cells [2]): reduced | mitochondrial permeability transition (tumor cells [3]): do not trigger mitochondrial permeability transition | AMPK and eIF2α phosphorylation, combined with 2-DG ([4]; Gamitrinib combined with 2-DG): maximally stimulated AMPK and eIF2α phosphorylation | AMPK phosphorylation, combination of metformin plus Gamitrinib ([4]; combination with metformin): did not further stimulate AMPK phosphorylation | AMPK activation compared with metformin ([4]; tumor cells): more prominent than that induced by metformin | AMPK activation remained sustained ([4]; tumor cells): ≥ 9 h | AMPK phosphorylation ([4]; tumor cells): concentration dependent phosphorylation of AMP-activated kinase (AMPK) | onset of AMPK activation ([4]; tumor cells): ≤ 30 min | total AMPK levels ([4]; tumor cells): not affected | Grp78, CHOP or C/EBPβ expression, combined with 2-DG (tumor cells [5]; Gamitrinib combined with 2-DG): translational suppression of Grp78, CHOP or C/EBPβ | mRNA expression of CHOP, C/EBPβ and Grp78 (tumor cells [5]; quantitative PCR): time-dependent upregulation of ER UPR markers, CHOP, C/EBPβ and Grp78 | C/EBPβ and CHOP expression (tumor cells [5]; tumor cells): induction of transcription factors, CCAAT-enhancer binding protein (C/EBPβ) and C/EBP homology protein (CHOP) | Grp78 expression (tumor cells [5]; tumor cells): upregulation of the ER chaperone, Grp78 | Xbp1 mRNA splicing (tumor cells [5]; tumor cells): de novo mRNA splicing, i.e. activation, of its target, X-Box Protein-1, Xbp1 | eIF2α phosphorylation (tumor cells [5]; tumor cells): transient phosphorylation of PERK-regulated eIF2α | time to induction of ER UPR (tumor cells [5]; tumor cells): ≤ 1 h | IRE-1 expression (tumor cells [5]; within 1 h): increased expression of Inositol-Requiring-1 (IRE-1) kinase | IC50 (BRAF WT melanoma cells): 6 ± 1.4 µM | COX-IV solubility (CypD): indistinguishable in control or Gamitrinib-treated cells | CypD solubility (CypD; vs untreated cultures): caused CypD to remain insoluble over a broad range of detergent concentrations | cell killing in 3D spheroids [6]: efficiently killed | concentrations that killed cells in 3D spheroids [6]: 1 to 3 µM | oxygen consumption (LN229 cells [7]): reduced | AMPK activation [8]: did not activate AMPK

Reference: patent publication US20160015725A1, “METHODS OF CONTROLLING TUMOR BIOENERGETICS NETWORKS” (THE WISTAR INSTITUTE OF ANATOMY AND BIOLOGY, priority 2012, published 2016)
